{"source": "patent US20170021014A1", "about": "“VACCINE ADJUVANTS FOR CYTOMEGALOVIRUS PREVENTION AND TREATMENT” (THE JOHNS HOPKINS UNIVERSITY, priority 2015, published 2017)", "assay_type_in_all_cases": "cell-based, human cytomegalovirus", "key": {"HCMV Towne": {"tested_on": "HCMV Towne", "assay": "Plaque reduction assay in HFFs, HCMV Towne", "procedure": "(§1) A plaque reduction assay was performed in HFFs to determine the effects of MDP treatment either before or after infection on virus replication. HFFs were seeded into 12-well plates (2×10^5 cells/well) and infected with Towne HCMV at approximately 100 plaques/well. After 90 minutes, media were aspirated, and DMEM containing 0.5% carboxymethyl-cellulose (CMC), 4% fetal bovine serum (FBS), and MDP at final concentration of 10 μg/mL were added into duplicate wells. In pretreatment experiments HFFs were first treated with MDP (10 μg/mL) for 72 h after which infection with the Towne or TB40 strains was carried out at approximately 100 plaques/well. After 90 minute adsorption, media were aspirated, and DMEM containing 0.5% CMC and 4% FBS were added into duplicate wells. After incubation at 37° C. for 8 days (Towne) or 10 days (TB40) the overlay was removed and plaques were counted after crystal violet staining."}, "HCMV TB40": {"tested_on": "HCMV TB40", "assay": "Plaque reduction assay in HFFs, HCMV TB40", "conditions": "MDP 10 μg/mL pretreatment 72 h, 100 PFU/well, 10 days", "procedure": "as §1"}, "[1]": {"tested_on": "HCMV proteins (IE1/2, pp65)", "assay": "Western blot of HCMV proteins in infected HFFs", "procedure": "Cell lysates containing equivalent amount of proteins were mixed with an equal volume of sample buffer (125 mM Tris-HCL, pH 6.8, 4% SDS, 20% glycerol and 5% β-mercaptoethanol) and boiled at 100° C. for 10 min. Denatured proteins were resolved in Tris-glycine polyacrylamide gels (10-12%) and transferred to polyvinylidine difluoride (PVDF) membranes (Bio-Rad Laboratories, Hercules, Calif.) by electroblotting. Membranes were incubated in blocking solution [5% w/v non-fat dry milk and 0.1% Tween-20 in PBS (PBST)] for 1 h, washed with PBST, and incubated with antibody at 4° C. overnight. Membranes were washed with PBST and incubated with horseradish peroxidase-conjugated secondary antibodies in PBST for 1 h at room temperature. Following washing with PBST, protein bands were visualized by chemiluminescence using SuperSignal West Dura and Pico reagents (Pierce Chemical, Rockford, Ill.). Antibodies for HCMV proteins were used at 1:2000 and included: mouse monoclonal anti-HCMV IE1 & IE2 (MAB810, Millipore, Billerica, Mass.), mouse monoclonal anti-HCMV UL83 (pp65, Vector Laboratories Inc., Burlingame, Calif.), and mouse monoclonal anti-pp52 (UL44, Santa Cruz Biotechnology, Santa Cruz, Calif.). Rabbit polyclonal anti human-NOD2 antibody (H-300, 1:2000), rabbit polyclonal anti-RIPK2 (1:5000), mouse monoclonal anti-NF-KB (p65, 1:1000), rabbit polyclonal anti-IRF3 (1:1000) and mouse monoclonal anti-IRF7 (1:1000) were from Santa Cruz. Rabbit monoclonal anti-Histone H3 (1:2000), rabbit monoclonal anti-pERK1/2 (1:5000), mouse monoclonal anti-total ERK (1:2000), rabbit monoclonal anti-pIκBα (1:2000), mouse monoclonal anti-IκBα, rabbit monoclonal anti-pTBK1 (Ser172), and rabbit monoclonal anti-TBK1 (1:1000) were from Cell Signaling Technology, Beverly, Mass. Horseradish peroxidase (HRP)-conjugated anti-rabbit IgG was from Cell Signaling. […]\nQuantitative analysis of proteins detected by immunoblotting was performed using ImageJ 1.48v software (NIH) by determining relative band intensities of individual bands. […]"}, "[2]": {"tested_on": "pp28-luciferase Towne strain", "assay": "pp28-luciferase HCMV replication assay (first and second cycle)", "conditions": "for luciferase activity reduction, second cycle: MOI 1, second cycle 72 h", "procedure": "Human Foreskin Fibroblasts (HFFs) passage 12-16 (ATCC, CRL-2088™) were grown in Dulbecco's Modified Eagle Medium (DMEM) containing 10% fetal bovine serum (FBS) (Gibco, Carlsbad, Calif.) in a 5% CO2 incubator at 37° C. The generation of NOD2-KD HFFs (HFF-shNOD2) and control cells (HFF-GIPZ) was reported. One day prior to infection or treatment, 8×10^4 cells were seeded into each well of 12-well tissue culture plates. Multiplicities of infection were specified for each experiment. The Towne HCMV strain was obtained from ATCC (VR-977). The pp28-luciferase Towne strain which expresses luciferase under the control of the pp28 late promoter has been described. Luciferase activity was measured at 72 or 96 hours post infection (hpi) using the Glomax-Multi+ Detection System (Promega, Madison, Wis.). In second cycle replication assays cell free supernatants from HFFs infected with pp28-luciferase Towne were collected 4 days post completion of first replication cycle (5-10% of total volume/well), and used for infection of fresh HFFs seeded into 12-well plates. Cell lysates were collected after 72 h for luciferase activity. Supernatants from the first cycle were also used to measure virus titer in 12-well plates and plaques were counted at day 8 post infection. A purified preparation of the pp28-luciferase Towne strain was prepared by ultracentrifugation using sucrose gradient. The HCMV TB40 strain was obtained from ATCC (VR-1578). Clinical isolates of HCMV were obtained from the microbiology laboratory at Johns Hopkins Hospital with no identifiers that could be linked to a patient. The Johns Hopkins School of Medicine Office of Human Subject Research Institutional Review Board (IRB-X) determined that the research qualified for an exemption."}, "clinical isolate of HCMV": {"tested_on": "clinical isolate of HCMV", "assay": "Immunofluorescence staining for HCMV IE1/2", "conditions": "GIPZ HFFs, MDP pretreatment 72 h, infected 24 h, MOI 1", "procedure": "GIPZ control and shIFN-β HFFs were seeded into 96-well plate (1×10^4 cells/well) and pretreated with MDP (10 μg/mL) for 72 h. Cells were then infected with a clinical isolate of HCMV at MOI 1. Twenty-four hours after infection, cells were fixed with methanol/acetone (1:1) at −20° C. for 10 min. Cells were then blocked with 7.5% BSA for 30 min. and incubated for 1 h with anti-human CMV IE1&2 antibody (MAB810) (1:500 in 0.5% BSA). After 3 washes with PBS, cells were incubated with FITC-anti mouse antibody (F8521, Sigma, 1:500, in 0.5% BSA) for 1 h. Then cells were washed 3 times with PBS and counterstained with propidium iodide (Invitrogen) for nuclear staining. Images were taken using Nikon Eclipse TS100 microscope."}}, "data": [{"smiles": "CC(=O)N[C@H]1C(O)O[C@H](CO)[C@@H](O)[C@@H]1O[C@H](C)C(=O)N[C@@H](C)C(=O)N[C@H](CCC(=O)O)C(N)=O", "note": "(mixture of isomers) [MDP, Muramyl dipeptide]", "values": [{"measurement": "plaque number", "setting": "HCMV Towne; MDP 10 μg/mL after infection, 100 PFU/well, counted after 8 days", "value": "reduced plaque number"}, {"measurement": "plaque number reduction", "setting": "HCMV Towne; MDP 10 μg/mL pretreatment 72 h, 100 PFU/well, 8 days", "value": "approximately 90%"}, {"measurement": "number of plaques", "setting": "HCMV Towne; control GIPZ cells, MDP pretreatment 72 h, day 8", "value": "significantly decreased"}, {"measurement": "virus replication (plaque number)", "setting": "HCMV Towne; shIFN-β cells, MDP pretreatment 72 h, day 8", "value": "failed to restrict virus replication"}, {"measurement": "plaque number reduction", "setting": "HCMV TB40", "value": "~70", "unit": "%"}, {"measurement": "decrease in pp65 expression", "setting": "[1]; MDP treatment after infection, MOI 0.1, 96 hpi", "value": "approximately 75%"}, {"measurement": "reduction in pp65 expression", "setting": "[1]; MDP treatment after infection, higher MOI (MOI 1), 96 hpi", "value": 40, "unit": "%"}, {"measurement": "HCMV replication, dose response", "setting": "[1]; MOI 0.1, IE1/2 and pp65 expression after 4 days", "value": "suppressed HCMV replication (MOI 0.1) in a dose-dependent manner"}, {"measurement": "pp28 activity reduction, first cycle", "setting": "[2]; MDP pretreatment 10 μg/mL 72 h, MOI 0.1, 96 hpi", "value": 80, "unit": "%"}, {"measurement": "pp28 expression (luciferase activity), first cycle", "setting": "[2]; MDP pretreatment 18 or 72 h, MOI 1, 96 hpi", "value": "modest reduction"}, {"measurement": "luciferase activity reduction, second cycle", "setting": "[2]; MDP pretreatment 18 h", "value": "approximately 45%"}, {"measurement": "luciferase activity reduction, second cycle", "setting": "[2]; MDP pretreatment 72 h", "value": "~75", "unit": "%"}, {"measurement": "nuclear IE1/2 expression", "setting": "clinical isolate of HCMV", "value": "reduced IE1/2 expression"}]}]}
